Data set [1] has as its target T1, adenosine A2 receptor (Rattus norvegicus, UniProt P30543).
T1 construct: from tissue; host or cells: rat corpus striatum (washed membrane suspension)
The experiment in a line: Adenosine A2 Receptor Binding Test (3H-NECA + CPA, rat corpus striatum). The note with it: for inhibition at 1 µM: 10^-6 M. As for the experimental part:
Corpus striatum of a rat was suspended in ice-cooled 50 mM Tris hydroxymethyl aminomethane hydrochloride (Tris HCl) buffer (pH 7.7) by using Polytron homogenizer (manufactured by […] Co.). The suspension was centrifuged (50,000×g, 10 minutes), and the precipitate was suspended again in the same amount of 50 mM Tris HCl buffer. The suspension was centrifuged under the same conditions, and the final precipitate was suspended once again in 50 mM Tris HCl buffer containing 10 mM magnesium chloride and 0.02 unit/mg tissue of adenosine deaminase (manufactured by Sigma Co.) to give a tissue concentration of 5 mg (wet weight)/ml. […] The resulting mixture was allowed to stand at 25° C. for 120 minutes and then rapidly filtered by suction through a glass fiber filter (GF/C, manufactured by Whatman Co.). […] The radioactivity on the filter was determined with a liquid scintillation counter (manufactured by Packard instrument Co.). […] The Ki values shown in the table were calculated by the following equation: [formula]

A short description of data set [2]: Acute Toxicity Test (minimum lethal dose, po). The conditions noted are these: mice, 7 days after administration. Type of data set: in vivo. As for the experimental part: Test compounds were orally administered to groups of dd-strain male mice weighing 20±1 g, each group consisting of three mice (po; 300 mg/kg). Seven days after the administration, minimum lethal dose (MLD) of each compound was determined by observing the mortality.
Therefore, these compounds can be safely used in a wide range of doses.

In data set [3] the target is T1, adenosine A2 receptor. The experiment in a line: Adenosine A2 Receptor Binding Test (3H-CGS 21680, rat corpus striatum). The conditions noted are these: [3H]CGS 21680, read-out: A2 Receptor Inhibition Rate; for inhibition at 1 µM: 10^-6 M; for inhibition at 0.1 µM: 10^-7 M.
Description: Adenosine Receptor Antagonistic Activity (Adenosine A2 Receptor Binding Test)
Corpus striatum of a rat was suspended in ice-cooled 50 mM Tris hydroxymethyl aminomethane hydrochloride (Tris HCl) buffer (pH 7.7) by using Polytron homogenizer (manufactured by Kinematicas Co.). The suspension was centrifuged (50,000×g, 10 minutes), and the precipitate was suspended again in the same amount of 50 mM Tris HCl buffer. The suspension was centrifuged under the same conditions, and the final precipitate was suspended once again in 50 mM Tris HCl buffer containing 10 mM magnesium chloride and 0.02 unit/mg tissue of adenosine deaminase (manufactured by Sigma Co.) to give a tissue concentration of 5 mg (wet weight)/ml.
To 1 ml of the tissue suspension thus prepared were added 50 μl of a mixture of N-ethylcarboxamidoadenosine labeled with tritium (^3 H-NECA: 26 Ci/mmol, manufactured by Amersham Co.) (final concentration: 3.8 nM) and cyclopentyladenosine (CPA, manufactured by Sigma Co.) (final concentration: 50 nM), and 50 μl of a test compound. The resulting mixture was allowed to stand at 25° C. for 120 minutes and then rapidly filtered by suction through a glass fiber filter (GF/C, manufactured by Whatman Co.). The filter was immediately washed three times with 5 ml each of ice-cooled 50 mM Tris HCl buffer, and transferred to a vial, and a scintillator (EX-H by Wako Pure Chemical Industries, Ltd.) was added thereto. The radioactivity on the filter was determined with a liquid scintillation counter (manufactured by Packard instrument Co.).
The similar procedure as above was repeated to determine the radioactivity bound to the A2 receptors using 50 μl of CGS 21680 labeled with tritium {^3 H-2-[p-(2-carboxyethyl)phenethylamino]-5'-(N-ethylcarboxamide)adenosine: 40 Ci/mmol, manufactured by New England Nuclear Co. [J. Pharmacol. Exp. Ther., 251, 888 (1989)]} (final concentration: 4.0 nM) in place of 50 μl of the mixture of N-ethylcarboxamidoadenosine labeled with tritium (^3 H-NECA: 26 Ci/mmol, manufactured by Amersham Co.) (final concentration: 3.8 nM) and cyclopentyladenosine (CPA, manufactured by Sigma Co.) (final concentration: 50 nM).
The inhibition rate of the test compound against the binding of A2 receptors (^3 H-CGS 21680 binding) was calculated by the following equation: [formula]
Data set [4] deals with Haloperidol-Induced Catalepsy. The experiment in a line: Effect on Haloperidol-Induced Catalepsy. Type of data set: in vivo, male ddY mice. The conditions noted are these: 10 mg/kg po; for Total Score (catalepsy): sum of five mice, 25 points at the full, control 25; for inhibition in vivo at 10 mg/kg: Mus musculus, decrease in total score based on control group, read-out: Remission Rate. As for the experimental part: Effect on Haloperidol-Induced Catalepsy Parkinson's disease is a clinical syndrome caused by degeneration of nigrostriatal dopaminergic neurons. […] The experiment was performed by using several groups of 5-weeks-old male ddY mice (weighing 22 to 24 g, Japan SLC), each group consisting of 5 mice. Haloperidol (Janssen Pharmaceutica) suspended in 0.3% CMC was intraperitoneally administered to each mouse at a dose of 1.0 mg/kg. Test compounds were suspended in injectable distilled water (Otsuka Pharmaceutical Co., Ltd.) containing Tween 80 [polyoxyethylene (20) sorbitan monooleate]. L-DOPA (Kyowa Hakko Kogyo Co., Ltd.) and benserazide hydrochloride (Kyowa Hakko Kogyo Co., Ltd.) were suspended in 0.3% CMC. One hour after the haloperidol administration, the test compound suspensions and the control suspension [injectable distilled water (Otsuka Pharmaceutical Co., Ltd.) containing Tween 80] containing no test compound were orally administered to separate groups of the mice (0.1 ml per 10 g of body weight). One hour after the administration of the test compound, the forelimbs of each mouse and subsequently the hindlimbs of the same mouse were placed on a 4.5 cm-high, 1.0 cm-wide bar and catalepsy was estimated. […] The catalepsy score and the standard of judgment are shown below. […] The effect of the compounds was evaluated by the total of the catalepsy scores of five mice in each group (25 points at the full).

[5] abbreviates: read-out: A2 Receptor Inhibition Rate.
Setting [6] is: 10^-4 M, 3H-NECA, read-out: A2 Receptor Inhibition Rate.
[7] abbreviates: 10^-5 M, 3H-NECA, read-out: A2 Receptor Inhibition Rate.
[8] abbreviates: 3H-NECA, read-out: A2 Receptor Inhibition Rate.

Read-outs that look alike come from different tables or passages of the source.

T1 sequence (P30543 whole entry): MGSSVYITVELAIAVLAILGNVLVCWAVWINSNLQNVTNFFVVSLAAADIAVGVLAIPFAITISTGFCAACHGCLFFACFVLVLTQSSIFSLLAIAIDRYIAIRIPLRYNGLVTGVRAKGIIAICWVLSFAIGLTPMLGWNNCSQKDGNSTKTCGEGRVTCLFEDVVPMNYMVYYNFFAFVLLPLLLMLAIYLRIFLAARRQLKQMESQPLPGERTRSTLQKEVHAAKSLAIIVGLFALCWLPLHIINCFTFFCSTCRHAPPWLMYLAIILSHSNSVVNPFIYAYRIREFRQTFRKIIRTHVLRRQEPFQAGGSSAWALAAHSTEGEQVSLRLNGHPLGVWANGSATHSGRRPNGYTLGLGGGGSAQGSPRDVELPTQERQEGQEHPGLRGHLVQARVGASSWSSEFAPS

Usually Ki stands for a dissociation constant, usually derived from enzyme kinetics or from competition with a known ligand. In general, inhibition refers to the change of the read-out against control, counted positive when it falls. With `CCCn1c(=O)c2c(nc(/C=C/c3cc(OC)c(OC)cc3S(=O)(=O)O)n2C)n(CCC)c1=O` [Compound 1, (E)-4,5-Dimethoxy-β-(7-methyl-1,3-dipropylxanthin-8-yl)styrene-2-sulfonic acid], the Ki at adenosine A2 receptor [1] (3H-NECA) is 670 nM. Moreover, at adenosine A2 receptor [1] (setting [5]), the inhibition at 10 µM was determined as 80% and the inhibition at 100 µM was found to be 95%. Also, the “MLD (minimum lethal dose)” value in data set [2] is given as greater than 300 mg/kg.

In the case of `CCCn1c(=O)c2c(nc(/C=C/c3cc(OC)c(OC)cc3S(=O)(=O)N(CC)CC)n2C)n(CCC)c1=O` [Compound 2, (E)-N,N-Diethyl-4,5-dimethoxy-β-(7-methyl-1,3-dipropylxanthin-8-yl)styrene-2-sulfonamide], the inhibition at 100 µM on adenosine A2 receptor [1] (setting [6]) stood at 112%. In addition, on adenosine A2 receptor [1] (setting [7]), the inhibition at 10 µM was 97%.

As for `CCCn1c(=O)c2c(nc(/C=C/c3ccc(C(=O)OC)cc3OC)n2C)n(CCC)c1=O` [Compound 21, (E)-2-Methoxy-β-(7-methyl-1,3-dipropylxanthin-8-yl)styrene-4-carboxylic acid methyl ester], on adenosine A2 receptor [3], the inhibition at 1 µM is 94% and the inhibition at 0.1 µM was 80%.

Regarding `CCCn1c(=O)c2c(nc(/C=C/c3cc(OC)c(OC)c(OC)c3S(=O)(=O)O)n2C)n(CCC)c1=O` [Compound 11, (E)-β-(7-Methyl-1,3-dipropylxanthin-8-yl)-3,4,5-trimethoxystyrene-2-sulfonic acid], in data set [4], the “Total Score (catalepsy)” value is 19 and the inhibition in vivo at 10 mg/kg was 24%. Moreover, the inhibition at 100 µM on adenosine A2 receptor [1] (setting [6]) came out at 93%. Further, at adenosine A2 receptor [1] (setting [7]), the inhibition at 10 µM stood at 93%.

`CCCn1c(=O)c2c(nc(/C=C/c3cc(OC)c(OC)cc3S(=O)(=O)Nc3ccccc3)n2C)n(CCC)c1=O` [Compound 10, (E)-N-Phenyl-4,5-dimethoxy-β-(7-methyl-1,3-dipropylxanthin-8-yl)styrene-2-sulfonamide]: in data set [4], the “Total Score (catalepsy)” value is listed as 17 and the inhibition in vivo at 10 mg/kg was found to be 32%.

For the compound `CCCn1c(=O)c2c(nc(/C=C/c3ccc(OC)c(C(C)=O)c3)n2C)n(CCC)c1=O` [Compound 26, (E)-8-(3-Acetyl-4-methoxystyryl)-7-methyl-1,3-dipropylxanthine], on adenosine A2 receptor [3], the inhibition at 1 µM was 93% and the inhibition at 0.1 µM is 66%.

For `CCn1c(=O)c2c(nc(/C=C/c3ccc(C(=O)O)cc3OC)n2C)n(CC)c1=O` [Compound 22, (E)-β-(1,3-Diethyl-7-methylxanthin-8-yl)-2-methoxystyrene-4-carboxylicacid], on adenosine A2 receptor [3], the inhibition at 1 µM was 92% and the inhibition at 0.1 µM was 60%.

In the case of `CCCn1c(=O)c2c(nc(/C=C/c3cc(OC)c(OC)cc3S(=O)(=O)N(C)CCN(C)C)n2C)n(CCC)c1=O` [Compound 6, (E)-N-[2-(Dimethylamino)ethyl]-N-methyl-4,5-dimethoxy-β-(7-methyl-1,3-dipropylxanthin-8-yl)styrene-2-sulfonamide], in data set [4], the “Total Score (catalepsy)” value was found to be 19 and the inhibition in vivo at 10 mg/kg came out at 24%.

`CCCn1c(=O)c2c(nc(/C=C/c3cc(OC)c(OC)c(OC)c3S(N)(=O)=O)n2C)n(CCC)c1=O` [Compound 12, (E)-β-(7-Methyl-1,3-dipropylxanthin-8-yl)-3,4,5-trimethoxystyrene-2-sulfonamide]: in data set [4], the “Total Score (catalepsy)” value was 15 and the inhibition in vivo at 10 mg/kg was found to be 40%. Also, at adenosine A2 receptor [1] (setting [6]), the inhibition at 100 µM amounted to 76%. Moreover, the inhibition at 10 µM at adenosine A2 receptor [1] (setting [7]) stood at 68%.

As to `CCCn1c(=O)c2c(nc(/C=C/c3ccc(S(=O)(=O)O)cc3)n2C)n(CCC)c1=O` [Compound 31, (E)-β-(7-Methyl-1,3-dipropylxanthin-8-yl)styrene-4-sulfonic acid], on adenosine A2 receptor [3], the inhibition at 1 µM is 89% and the inhibition at 0.1 µM was determined as 56%.

Turning to `CCCn1c(=O)c2c(nc(/C=C/c3ccc(C(=O)OC)cc3)n2C)n(CCC)c1=O` [Compound 7, (E)-β-(7-Methyl-1,3-dipropylxanthin-8-yl)styrene-4-carboxylic acid methyl ester], in data set [4], the “Total Score (catalepsy)” value amounted to 11 and the inhibition in vivo at 10 mg/kg was found to be 56%. Besides, the inhibition at 100 µM on adenosine A2 receptor [1] (setting [6]) turned out to be 92%. Besides, on adenosine A2 receptor [1] (setting [7]), the inhibition at 10 µM is 77%.

As for `CCn1c(=O)c2c(nc(/C=C/c3ccc(F)c(C(C)=O)c3)n2C)n(CC)c1=O` [Compound 28, (E)-8-(3-Acetyl-4-fluorostyryl)-1,3-diethyl-7-methylxanthine], at adenosine A2 receptor [3], the inhibition at 1 µM stood at 86% and the inhibition at 0.1 µM was determined as 76%.

For `CCCn1c(=O)c2c(nc(/C=C/c3cc(OC)c(OC)cc3S(=O)(=O)N3CCCCC3)n2C)n(CCC)c1=O` [Compound 4, (E)-4,5-Dimethoxy-β-(7-methyl-1,3-dipropylxanthin-8-yl)-2-piperidinosulfonylstyrene], in data set [4], the “Total Score (catalepsy)” value turned out to be 11 and the inhibition in vivo at 10 mg/kg is 56%. On adenosine A2 receptor [1] (setting [6]), the inhibition at 100 µM worked out at 60%. Besides, the inhibition at 10 µM on adenosine A2 receptor [1] (setting [7]) stood at 74%.

Turning to `CCn1c(=O)c2c(nc(/C=C/c3ccc(C(=O)OC)cc3OC)n2C)n(CC)c1=O` [Compound 20, (E)-β-(1,3-Diethyl-7-methylxanthin-8-yl) -2-methoxystyrene-4-carboxylic acid methyl ester], at adenosine A2 receptor [3], the inhibition at 1 µM turned out to be 88% and the inhibition at 0.1 µM worked out at 69%.

Take `CCCn1c(=O)c2c(nc(/C=C/c3cc(C)c(C)cc3S(=O)(=O)O)n2C)n(CCC)c1=O` [Compound 15, (E) -4,5-Dimethyl-β-(7-methyl-1,3-dipropylxanthin-8-yl)styrene-2-sulfonicacid]: in data set [2], the “MLD (minimum lethal dose)” value is reported as greater than 300 mg/kg.

Take `CCCn1c(=O)c2c(nc(/C=C\c3ccc(C(=O)O)cc3)n2C)n(CCC)c1=O` [Compound 18, (Z)-β-(7-Methyl-1,3-dipropylxanthin-8-yl)styrene-4-carboxylic acid]: the inhibition at 1 µM on adenosine A2 receptor [1] (setting [8]) was 72%. Further, in data set [2], the “MLD (minimum lethal dose)” value is greater than 300 mg/kg.

In the case of `CCCN(CCC)S(=O)(=O)c1cc(OC)c(OC)cc1/C=C/c1nc2c(c(=O)n(CCC)c(=O)n2CCC)n1C` [Compound 3, (E)-N,N-Dipropyl-4,5-dimethoxy-β-(7-methyl-1,3-dipropylxanthin-8-yl)styrene-2-sulfonamide], in data set [4], the “Total Score (catalepsy)” value amounted to 20 and the inhibition in vivo at 10 mg/kg was determined as 20%. The inhibition at 100 µM at adenosine A2 receptor [1] (setting [6]) turned out to be 91%. Also, on adenosine A2 receptor [1] (setting [7]), the inhibition at 10 µM was 92%.

On to `CCCn1c(=O)c2c(nc(/C=C/c3cc(OC)c(OC)c(OC)c3S(=O)(=O)N(C)CCN(C)C)n2C)n(CCC)c1=O` [Compound 13, (E)-N-[2-(Dimethylamino)ethyl]-N-methyl-β-(7-methyl-1,3-dipropylxanthin-8-yl)-3,4,5-trimethoxystyrene-2-sulfonamide], for which the inhibition at 100 µM at adenosine A2 receptor [1] (setting [6]) turned out to be 89%. In addition, at adenosine A2 receptor [1] (setting [7]), the inhibition at 10 µM worked out at 69%.

Regarding `CCCn1c(=O)c2c(nc(/C=C/c3ccc(C(=O)O)cc3OC)n2C)n(CCC)c1=O` [Compound 23, (E)-2-Methoxy-β-(7-methyl-1,3-dipropylxanthin-8-yl)styrene-4-carboxylic acid], at adenosine A2 receptor [3], the inhibition at 1 µM turned out to be 95% and the inhibition at 0.1 µM was 70%.

As to `CCCn1c(=O)c2c(nc(/C=C/c3ccc(C(=O)O)cc3)n2C)n(CCC)c1=O` [Compound 19, (E)-β-(7-Methyl-1,3-dipropylxanthin-8-yl)styrene-4-carboxylic acid], the inhibition at 1 µM on adenosine A2 receptor [1] (setting [8]) was 94%. The inhibition at 0.1 µM at adenosine A2 receptor [1] (10^-7 M, 3H-NECA, read-out: A2 Receptor Inhibition Rate) was 68%.

`CCn1c(=O)c2c(nc(/C=C/c3ccc(C(C)=O)c(OC)c3)n2C)n(CC)c1=O` [Compound 30, (E)-8-(4-Acetyl-3-methoxystyryl)-1,3-diethyl-7-methylxanthine]: at adenosine A2 receptor [3], the inhibition at 1 µM was determined as 95% and the inhibition at 0.1 µM came to 83%.
